The results in this text go back to patent publication US20060140857A1, “Method of the administration of drugs with binding affinity for plasma protein and preparation to be used in the method” (NIHON MEDI-PHYSICS CO., LTD., priority 1999, published 2006).

In data set [1] the target is human serum albumin (HSA) (Homo sapiens, UniProt P02768). In words: Displacement of 99mTc-MAG3 binding to serum albumin, human serum, ultrafiltration. The conditions noted are these: human serum, second drug added. The protocol: Displacement test of ^99mTc-MAG3 binding to serum albumin was conducted as follows by use of human serum or rat serum and site-specific drugs (second drugs) with binding affinity for the binding site I or site II on albumin.
Chain of human serum albumin (HSA) (P02768 25-609): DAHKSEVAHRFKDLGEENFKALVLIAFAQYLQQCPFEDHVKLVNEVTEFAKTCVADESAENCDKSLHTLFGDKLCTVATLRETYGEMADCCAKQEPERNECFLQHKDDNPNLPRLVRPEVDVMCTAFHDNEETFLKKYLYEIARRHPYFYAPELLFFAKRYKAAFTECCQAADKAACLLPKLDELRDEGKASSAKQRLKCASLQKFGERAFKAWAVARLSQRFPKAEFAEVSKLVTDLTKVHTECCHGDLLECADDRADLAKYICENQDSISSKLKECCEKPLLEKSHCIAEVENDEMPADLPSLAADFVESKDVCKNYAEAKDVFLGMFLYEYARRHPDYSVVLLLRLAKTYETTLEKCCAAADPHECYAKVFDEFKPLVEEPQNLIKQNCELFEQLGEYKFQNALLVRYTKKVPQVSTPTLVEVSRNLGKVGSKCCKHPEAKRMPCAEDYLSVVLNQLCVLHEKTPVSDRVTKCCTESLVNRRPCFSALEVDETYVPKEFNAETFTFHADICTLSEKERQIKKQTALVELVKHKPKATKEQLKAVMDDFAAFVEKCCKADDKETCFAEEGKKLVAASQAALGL
First, albumin content in a normal human serum was measured previously, and the concentration of the human serum albumin (HSA) was adjusted to 500 μM by phosphate buffer (pH=7.4).
Further, a site-specific drug with the binding affinity for the site I or the site II on HSA was added to the above-mentioned serum solution, as in the form of a methanol solution or an aqueous solution. As the sample solution for control group, only methanol or water was added to the above-mentioned serum solution.
Next, a certain amount of ^99mTc-MAG3 (about 740 kBq/20 μl) was added to each of the sample and a certain amount (20-50 μl) of the sample was taken out as the specimen before ultrafiltration. […] Then, 20-50 μl each of the filtrates was taken out as the specimen after ultrafiltration. Radioactivities (cpm) of the specimens before and after ultrafiltration were measured, and the free fraction (%) of ^99mTc-MAG3 was calculated by the following equation: free fraction of ^99mTc-MAG3 (%)=[A]/[B] [A]: Radioactivity (cpm) after ultrafiltration, [B]: Radioactivity (cpm) before ultrafiltration

A short description of data set [2]: Free fraction of 99mTc-MAG3 in rat blood after administration of bucolome. The following applies: rats, bucolome loading 20 mg/kg, FIG. 4. Type of data set: in vivo. The protocol: In the control group and test group with bucolome loading of 20 mg/kg of body weight, wherein the dose and other conditions were the same as mentioned above, except the decapitation time was prescribed at 2, 5 and 10 minutes, administrations and decapitations of rats were conducted so that 3-5 ml of blood per one rat were collected. Serum was separated using a sample tube, after that the free fraction was determined by the procedures as described in Example 1.

Data set [3] is described as follows: Biodistribution of 99mTc-MAG3 in rat loaded with bucolome. It is filed as in vivo, Wister-strain rat. The conditions noted are these: rats, bucolome loading, FIG. 3. The protocol:
Effect of second drug on biodistribution of ^99mTc-MAG3 in rat was examined using the control group and the test group with bucolome loading. ^99mTc-MAG3 (740 kBq/100 μl) was administered to the tail vein of Wister-strain rat. The rats were decapitated at 2, 5, 10 and 15 minutes after administration of ^99mTc-MAG3, then the blood and the organs of interest were excised. After measured the weight of these orgams, the radioactivities were determined. After decay correction of the radioactivity, the accumulation ratios (% dose/organ and % dose/g of the tissue) were determined.
As for the rat of test group loaded with bucolome, 5 minutes before the administration of ^99mTc-MAG3, 20 mg/kg of body weight or 100 mg/kg of body weight of bucolome was administered to the tail vein.

In another data set the target is serum albumin (Homo sapiens, UniProt P02768). In words: Displacement of 99mTc-ECD binding to plasma protein, human serum. The conditions noted are these: second drug 200 μM and 400 μM.
Chain of serum albumin (P02768 25-609): as above

Consider `CCCCC1C(=O)NC(=O)N(C2CCCCC2)C1=O` (stereo not shown) [bucolome, 5-n-butyl-1-cyclohexyl-2,4,6-trioxoperhydropyrimidine], for which, in data set [1], the “change of free fraction of 99mTc-MAG3 compared with control” value is on record as “significantly increased”. Moreover, in data set [2], the “effect on free fraction of 99mTc-MAG3 in vivo” value was “remarkably increased”. Moreover, in data set [3], the “effect on blood clearance of 99mTc-MAG3” value is listed as “accelarated”. For the same molecule, on serum albumin, the “change of free fraction of 99mTc-ECD compared with control” value is on record as “also incresed”.
